Reference: ChEMBL document CHEMBL3508574 (2016)
Blank lines part the entries; values can stand above or below the compound they belong to.

Legend:
[1] = Cmax of active HMG-CoA reductase inhibitor L-654,969 following administration of simvastatin tablet at 40 mg dose level in hypercholesterolemic patients; format: ADME, organism-based, Plasma; settings: human, in vivo, po
[2] = Cmax of active HMG-CoA reductase inhibitor L-654,969 following administration of simvastatin tablet at 80 mg dose level in hypercholesterolemic patients; format: ADME, organism-based, Plasma; settings: human, in vivo, po
[3] = Cmax of active HMG-CoA reductase inhibitor L-654,969 following administration of simvastatin tablet at 160 mg dose level in hypercholesterolemic patients; format: ADME, organism-based, Plasma; settings: human, in vivo, po
[4] = Tmax of active HMG-CoA reductase inhibitor L-654,969 following administration of simvastatin tablet at 40 mg dose level in hypercholesterolemic patients; format: ADME, organism-based, Plasma; settings: human, in vivo, po
[5] = Tmax of active HMG-CoA reductase inhibitor L-654,969 following administration of simvastatin tablet at 80 mg dose level in hypercholesterolemic patients; format: ADME, organism-based, Plasma; settings: human, in vivo, po
[6] = Tmax of active HMG-CoA reductase inhibitor L-654,969 following administration of simvastatin tablet at 160 mg dose level in hypercholesterolemic patients; format: ADME, organism-based, Plasma; settings: human, in vivo, po
[7] = AUC of active HMG-CoA reductase inhibitor L-654,969 following administration of simvastatin tablet at 40 mg dose level in hypercholesterolemic patients; format: ADME, organism-based, Plasma; settings: human, in vivo, po
[8] = AUC of active HMG-CoA reductase inhibitor L-654,969 following administration of simvastatin tablet at 80 mg dose level in hypercholesterolemic patients; format: ADME, organism-based, Plasma; settings: human, in vivo, po
[9] = AUC of active HMG-CoA reductase inhibitor L-654,969 following administration of simvastatin tablet at 160 mg dose level in hypercholesterolemic patients; format: ADME, organism-based, Plasma; settings: human, in vivo, po
[10] = Bioavailability of active beta-hydroxy acid form of simvastatin following oral administration of simvastatin in rat; format: ADME, organism-based; settings: in vivo
[11] = Bioavailability of active beta-hydroxy acid form of simvastatin following oral administration of simvastatin in dog; format: ADME, organism-based, Canis lupus familiaris; settings: in vivo
[12] = Bioavailability of active beta-hydroxy acid form of simvastatin following oral administration of simvastatin in human; format: ADME, organism-based; settings: in vivo
[13] = Hepatic extraction of active beta-hydroxy acid form of simvastatin following oral administration of simvastatin in rat; format: ADME, organism-based, Liver; settings: in vivo
[14] = Hepatic extraction of active beta-hydroxy acid form of simvastatin following oral administration of simvastatin in dog; format: ADME, organism-based, Canis lupus familiaris, Liver; settings: in vivo
[15] = Hepatic extraction of active beta-hydroxy acid form of simvastatin following oral administration of simvastatin in human; format: ADME, organism-based, Liver; settings: in vivo
[16] = Extrahepatic tissue penetration of active beta-hydroxy acid form of simvastatin following oral administration of simvastatin in rat; format: ADME, organism-based; settings: in vivo
[17] = Extrahepatic tissue penetration of active beta-hydroxy acid form of simvastatin following oral administration of simvastatin in dog; format: ADME, organism-based, Canis lupus familiaris; settings: in vivo
[18] = Extrahepatic tissue penetration of active beta-hydroxy acid form of simvastatin following oral administration of simvastatin in human; format: ADME, organism-based; settings: in vivo
[19] = Extensive biliary excretion of active beta-hydroxy acid form of simvastatin following oral administration of simvastatin in rat; format: ADME, organism-based, Bile; settings: in vivo
[20] = Extensive biliary excretion of active beta-hydroxy acid form of simvastatin following oral administration of simvastatin in dog; format: ADME, organism-based, Canis lupus familiaris, Bile; settings: in vivo
[21] = Extensive biliary excretion of active beta-hydroxy acid form of simvastatin following oral administration of simvastatin in human; format: ADME, organism-based, Bile; settings: in vivo
Canis lupus familiaris [22] = assay: Plasma protein binding of simvastatin acid following oral dose of simvastatin at 2 mg.Kg-1 level in dog; format: organism-based; design: dose 2 mg.Kg-1, dosed compound id 2.4681e+06, dosed compound name, dose level, study doses mg.Kg-1
Homo sapiens [23] = assay: Plasma protein binding of simvastatin acid following oral dose of simvastatin at […] level in human; format: organism-based; design: dose 40 mg, dosed compound id 2.4681e+06, dosed compound name, dose level, study doses mg
[24] = Mean AUC (0-t) of simvastatin acid following administration of simvastatin 80 mg orally disintegrating tablet in healthy human; format: ADME, organism-based, Plasma; settings: in vivo, po
[25] = Mean AUC (0-t) of simvastatin acid following administration of reference product Zocor 80 mg tablet in healthy human; format: ADME, organism-based, Plasma; settings: in vivo, po
[26] = Mean AUC (0-infinity) of simvastatin acid following administration of simvastatin 80 mg orally disintegrating tablet in healthy human; format: ADME, organism-based, Plasma; settings: in vivo, po
[27] = Mean AUC (0-infinity) of simvastatin acid following administration of reference product Zocor 80 mg tablet in healthy human; format: ADME, organism-based, Plasma; settings: in vivo, po
[28] = Mean Cmax of simvastatin acid following administration of simvastatin 80 mg orally disintegrating tablet in healthy human; format: ADME, organism-based, Plasma; settings: in vivo, po
[29] = Mean Cmax of simvastatin acid following administration of reference product Zocor 80 mg tablet in healthy human; format: ADME, organism-based, Plasma; settings: in vivo, po
[30] = Mean Tmax of simvastatin acid following administration of simvastatin 80 mg orally disintegrating tablet in healthy human; format: ADME, organism-based, Plasma; settings: in vivo, po
[31] = Mean Tmax of simvastatin acid following administration of reference product Zocor 80 mg tablet in healthy human; format: ADME, organism-based, Plasma; settings: in vivo, po
[32] = Mean elimination rate constant of simvastatin acid following administration of simvastatin 80 mg orally disintegrating tablet in healthy human; format: ADME, organism-based, Plasma; settings: in vivo, po
[33] = Mean elimination rate constant of simvastatin acid following administration of reference product Zocor 80 mg tablet in healthy human; format: ADME, organism-based, Plasma; settings: in vivo, po
[34] = Mean elimination half-life of simvastatin acid following administration of simvastatin 80 mg orally disintegrating tablet in healthy human; format: ADME, organism-based, Plasma; settings: in vivo, po
[35] = Mean elimination half-life of simvastatin acid following administration of reference product Zocor 80 mg tablet in healthy human; format: ADME, organism-based, Plasma; settings: in vivo, po
[36] = Cmax of total HMG-CoA reductase inhibitor (both lactone and open acid) following administration of simvastatin tablet at 40 mg dose level in hypercholesterolemic patients; format: ADME, organism-based, Plasma; settings: human, in vivo, po
[37] = Cmax of total HMG-CoA reductase inhibitor (both lactone and open acid) following administration of simvastatin tablet at 80 mg dose level in hypercholesterolemic patients; format: ADME, organism-based, Plasma; settings: human, in vivo, po
[38] = Cmax of total HMG-CoA reductase inhibitor (both lactone and open acid) following administration of simvastatin tablet at 160 mg dose level in hypercholesterolemic patients; format: ADME, organism-based, Plasma; settings: human, in vivo, po
[39] = AUC of total HMG-CoA reductase inhibitor (both lactone and open acid) following administration of simvastatin tablet at 40 mg dose level in hypercholesterolemic patients; format: ADME, organism-based, Plasma; settings: human, in vivo, po
[40] = AUC of total HMG-CoA reductase inhibitor (both lactone and open acid) following administration of simvastatin tablet at 80 mg dose level in hypercholesterolemic patients; format: ADME, organism-based, Plasma; settings: human, in vivo, po
[41] = AUC of total HMG-CoA reductase inhibitor (both lactone and open acid) following administration of simvastatin tablet at 160 mg dose level in hypercholesterolemic patients; format: ADME, organism-based, Plasma; settings: human, in vivo, po
[42] = Absorption of simvastatin following oral administration of simvastatin in rat; format: ADME, organism-based; settings: in vivo
[43] = Absorption of simvastatin following oral administration of simvastatin in dog; format: ADME, organism-based, Canis lupus familiaris; settings: in vivo
[44] = Absorption of simvastatin following oral administration of simvastatin in human; format: ADME, organism-based; settings: in vivo
Canis lupus familiaris [45] = assay: Plasma protein binding of simvastatin following oral dose of simvastatin at 2 mg.Kg-1 level in dog; format: organism-based; design: dose 2 mg.Kg-1, dosed compound id 2.4681e+06, dosed compound name, dose level, study doses mg.Kg-1
Homo sapiens [46] = assay: Plasma protein binding of simvastatin following oral dose of simvastatin at […] level in human; format: organism-based; design: dose 40 mg, dosed compound id 2.4681e+06, dosed compound name, dose level, study doses mg
[47] = Mean AUC (0-t) of simvastatin following administration of simvastatin 80 mg orally disintegrating tablet in healthy human; format: ADME, organism-based; settings: plasma, po
[48] = Mean AUC (0-t) of simvastatin following administration of reference product Zocor 80 mg tablet in healthy human; format: ADME, organism-based; settings: plasma, po
[49] = Mean AUC (0-infinity) of simvastatin following administration of simvastatin 80 mg orally disintegrating tablet in healthy human; format: ADME, organism-based; settings: plasma, po, read-out: AUC (0-infinity)
[50] = Mean AUC (0-infinity) of simvastatin following administration of reference product Zocor 80 mg tablet in healthy human; format: ADME, organism-based; settings: plasma, po, read-out: AUC (0-infinity)
[51] = Mean Cmax of simvastatin following administration of simvastatin 80 mg orally disintegrating tablet in healthy human; format: ADME, organism-based; settings: plasma, po
[52] = Mean Cmax of simvastatin following administration of reference product Zocor 80 mg tablet in healthy human; format: ADME, organism-based; settings: plasma, po
[53] = Mean elimination rate constant of simvastatin following administration of simvastatin 80 mg orally disintegrating tablet in healthy human; format: ADME, organism-based; settings: plasma, po
[54] = Mean elimination rate constant of simvastatin following administration of reference product Zocor 80 mg tablet in healthy human; format: ADME, organism-based; settings: plasma, po
[55] = Mean elimination half-life of simvastatin following administration of simvastatin 80 mg orally disintegrating tablet in healthy human; format: ADME, organism-based; settings: plasma, po
[56] = Mean elimination half-life of simvastatin following administration of reference product Zocor 80 mg tablet in healthy human; format: ADME, organism-based; settings: plasma, po

- Cmax [1]: 21 ng.eq.ml-1
- Cmax [2]: 50 ng.eq.ml-1
- Cmax [3]: 138 ng.eq.ml-1
- Tmax [4]: 1.8 h
- Tmax [5]: 1.8 h
- Tmax [6]: 1.8 h
- AUC [7]: 120 ng.eq.h.ml-1
- AUC [8]: 263 ng.eq.h.ml-1
- AUC [9]: 668 ng.eq.h.ml-1
- PPB (Canis lupus familiaris [22]): 93%
- PPB (Homo sapiens [23]): 93%
- AUC(0-t) [24]: 37.67 ng·h/mL
- AUC(0-t) [25]: 36.61 ng·h/mL
- AUC (0-infinity) [26]: 41.54 ng·h/mL
- AUC (0-infinity) [27]: 47.76 ng·h/mL
- Cmax [28]: 4.5 ng/mL
- Cmax [29]: 3.88 ng/mL
- Tmax [30]: 4.42 h
- Tmax [31]: 4.35 h
- Kel [32]: 0.1554 h⁻¹
- Kel [33]: 0.1357 h⁻¹
- t1/2 [34]: 5.95 h
- t1/2 [35]: 8.67 h
SMILES: CCC(C)(C)C(=O)O[C@H]1C[C@@H](C)C=C2C=C[C@H](C)[C@H](CC[C@@H](O)C[C@@H](O)CC(=O)O)[C@H]21 [TENIVASTATIN]
- F [10]: The active beta-hydroxyacid form of simvastatin is poorly bioavailable in rats
- F [11]: The active beta-hydroxyacid form of simvastatin is poorly bioavailable in dogs
- F [12]: The active beta-hydroxyacid form of simvastatin is poorly bioavailable in humans
- Hepatic extraction [13]: VALUE = Hepatic extraction of active beta-hydroxyacid form of simvastatin is high
- Hepatic extraction [14]: VALUE = Hepatic extraction of active beta-hydroxyacid form of simvastatin is high
- Hepatic extraction [15]: VALUE = Hepatic extraction of active beta-hydroxyacid form of simvastatin is high
- Compound recovery [16]: VALUE = Extrahepatic tissue penetration of active beta-hydroxyacid form of simvastatin is relatively poor
- Compound recovery [17]: VALUE = Extrahepatic tissue penetration of active beta-hydroxyacid form of simvastatin is relatively poor
- Compound recovery [18]: VALUE = Extrahepatic tissue penetration of active beta-hydroxyacid form of simvastatin is relatively poor
- Compound recovery [19]: OUTCOME = Observed, VALUE = Biliary excretion of active beta-hydroxyacid form of simvastatin is extensive
- Compound recovery [20]: OUTCOME = Observed, VALUE = Biliary excretion of active beta-hydroxyacid form of simvastatin is extensive
- Compound recovery [21]: OUTCOME = Observed, VALUE = Biliary excretion of active beta-hydroxyacid form of simvastatin is extensive

- Cmax [36]: 75 ng.eq.ml-1
- Cmax [37]: 165 ng.eq.ml-1
- Cmax [38]: 404 ng.eq.ml-1
- AUC [39]: 316 ng.eq.h.ml-1
- AUC [40]: 636 ng.eq.h.ml-1
- AUC [41]: 1533 ng.eq.h.ml-1
- Absorption [42]: Simvastatin is well absorbed in rats
- Absorption [43]: Simvastatin is well absorbed in dogs
- Absorption [44]: Simvastatin is well absorbed in humans
- PPB (Canis lupus familiaris [45]): 97%
- PPB (Homo sapiens [46]): 97%
- AUC(0-t) [47]: 77.6 ng·h/mL
- AUC(0-t) [48]: 83.9 ng·h/mL
- AUC(0-inf) [49]: 98.5 ng·h/mL
- AUC(0-inf) [50]: 102 ng·h/mL
- Cmax [51]: 18.3 ng/mL
- Cmax [52]: 19.4 ng/mL
- k el [53]: 4.16e-05 s⁻¹
- k el [54]: 3.02e-05 s⁻¹
- half-life [55]: 9.39 h
- half-life [56]: 10.1 h
SMILES: CCC(C)(C)C(=O)O[C@H]1C[C@@H](C)C=C2C=C[C@H](C)[C@H](CC[C@@H]3C[C@@H](O)CC(=O)O3)[C@H]21 [SIMVASTATIN]
